Test results reported in ChEMBL document CHEMBL1201862, “PubChem BioAssay data set” (2004).
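Dose response: 5 concentrations. Exposure: 48 h. Format: 96-well plates. Endpoint: linear interpolation; highest concentration if not reached. GI50: concentration for 50% inhibition of growth.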 The source made the active and inactive calls. Cut-off read from the data, not from the text of the source: active = GI50 up to about 1.1 µM and inactive = higher.

Experiments:
Experiment in all cases: NCI tumour cell line growth inhibition, 48 h
KM-20L2 = system: KM-20L2
DLD-1 = system: DLD-1
HCT-15 = system: HCT-15
TK-10 = system: TK-10
CCRF-CEM = system: CCRF-CEM
LOX IMVI = system: LOX IMVI
HCT-116 = system: HCT-116
HCC 2998 = system: HCC 2998
RXF 393 = system: RXF 393
A549 = system: A549
NCI-H23 = system: NCI-H23
SK-MEL-5 = system: SK-MEL-5
HL-60 = system: HL-60
RPMI-8226 = system: RPMI-8226
DMS-273 = system: DMS-273
SNB-78 = system: SNB-78
HT-29 = system: HT-29
ACHN = system: ACHN
786-0 = system: 786-0
SN12C = system: SN12C
SW-620 = system: SW-620
IGROV-1 = system: IGROV-1
HOP-62 = system: HOP-62
SK-MEL-28 = system: SK-MEL-28
UACC-257 = system: UACC-257
OVCAR-5 = system: OVCAR-5
COLO 205 = system: COLO 205
MOLT-4 = system: MOLT-4
EKVX = system: EKVX
HOP-18 = system: HOP-18
KM12 = system: KM12
SK-MEL-2 = system: SK-MEL-2
OVCAR-3 = system: OVCAR-3
UO-31 = system: UO-31
M14 = system: M14
NCI-H460 = system: NCI-H460
SF-539 = system: SF-539
UACC-62 = system: UACC-62
OVCAR-8 = system: OVCAR-8
A498 = system: A498
OVCAR-4 = system: OVCAR-4
DMS-114 = system: DMS-114
SR = system: SR
M19-MEL = system: M19-MEL
NCI-H226 = system: NCI-H226
HOP-92 = system: HOP-92
SNB-75 = system: SNB-75
SF-295 = system: SF-295
SK-OV-3 = system: SK-OV-3
CAKI-1 = system: CAKI-1
K562 = system: K562
NCI-H522 = system: NCI-H522
SNB-19 = system: SNB-19
SF-268 = system: SF-268
Malme-3M = system: Malme-3M
U-251 = system: U-251

O=C1c2cccc(NCCCNCCO)c2C(=O)c2cccc(NCCCNCCO)c21 was tested, and the GI50 (KM-20L2) was 2.34 µM (inactive), the GI50 (DLD-1) was 3.13 µM (inactive) and the GI50 (HCT-15) was 7.31 µM. The GI50 (TK-10) was 3 µM (inactive), the GI50 (CCRF-CEM) was 1.34 µM (inactive) and the GI50 (LOX IMVI) was 2.1 µM (inactive). For the same compound, the GI50 (HCT-116) was 1.56 µM (inactive), the GI50 (HCC 2998) was 1.08 µM (active) and the GI50 (RXF 393) was 2.95 µM (inactive). The GI50 (A549) was 1.99 µM (inactive), the GI50 (NCI-H23) was 2.99 µM (inactive) and the GI50 (SK-MEL-5) was 1.78 µM (inactive). The GI50 (HL-60) was 1.36 µM (inactive), the GI50 (RPMI-8226) was 1.97 µM (inactive) and the GI50 (DMS-273) was 2.02 µM (inactive). For the same compound, the GI50 (SNB-78) was 2.06 µM (inactive), the GI50 (HT-29) was 1.41 µM (inactive) and the GI50 (ACHN) was 1.59 µM (inactive). For the same compound, the GI50 (786-0) was 1.96 µM (inactive), the GI50 (SN12C) was 1.26 µM (inactive) and the GI50 (SW-620) was 1.46 µM (inactive). For the same compound, the GI50 (IGROV-1) was 2.56 µM (inactive), the GI50 (HOP-62) was 2.43 µM (inactive) and the GI50 (SK-MEL-28) was 1.96 µM (inactive). For the same compound, the GI50 (UACC-257) was 3.56 µM (inactive), the GI50 (OVCAR-5) was 2.65 µM (inactive) and the GI50 (COLO 205) was 1.36 µM (inactive). For the same compound, the GI50 (MOLT-4) was 1.35 µM (inactive), the GI50 (EKVX) was 2.32 µM (inactive) and the GI50 (HOP-18) was 2.67 µM (inactive). The GI50 (KM12) was 1.92 µM (inactive), the GI50 (SK-MEL-2) was 1.92 µM (inactive) and the GI50 (OVCAR-3) was 2.53 µM (inactive). The GI50 (UO-31) was 9.68 µM (inactive), the GI50 (M14) was 2.09 µM (inactive) and the GI50 (NCI-H460) was 1.68 µM (inactive). The GI50 (SF-539) was 1.86 µM (inactive), the GI50 (UACC-62) was 1.76 µM (inactive) and the GI50 (OVCAR-8) was 1.86 µM (inactive). The GI50 (A498) was 2.17 µM (inactive).

CN(C)C(=S)N=C(Nc1ccccc1)Nc1ccccc1 was tested, and the GI50 (KM-20L2) was > 100 µM (inactive), the GI50 (HCT-15) was over 100 µM and the GI50 (OVCAR-4) was > 100 µM (inactive). For the same compound, the GI50 (TK-10) was > 100 µM (inactive), the GI50 (CCRF-CEM) was > 100 µM (inactive) and the GI50 (DMS-114) was > 100 µM (inactive). For the same compound, the GI50 (LOX IMVI) was > 100 µM (inactive), the GI50 (SR) was > 100 µM (inactive) and the GI50 (HCT-116) was > 100 µM (inactive). For the same compound, the GI50 (HCC 2998) was > 100 µM (inactive), the GI50 (M19-MEL) was > 100 µM (inactive) and the GI50 (NCI-H226) was > 100 µM (inactive). For the same compound, the GI50 (HOP-92) was > 100 µM (inactive), the GI50 (SNB-75) was 91 µM (inactive) and the GI50 (RXF 393) was > 100 µM (inactive). The GI50 (A549) was > 100 µM (inactive), the GI50 (NCI-H23) was > 100 µM (inactive) and the GI50 (SF-295) was > 100 µM (inactive). For the same compound, the GI50 (SK-MEL-5) was > 100 µM (inactive), the GI50 (HL-60) was > 100 µM (inactive) and the GI50 (RPMI-8226) was > 100 µM (inactive). For the same compound, the GI50 (SK-OV-3) was > 100 µM (inactive), the GI50 (DMS-273) was > 100 µM (inactive) and the GI50 (CAKI-1) was > 100 µM (inactive). The GI50 (SNB-78) was > 100 µM (inactive), the GI50 (HT-29) was > 100 µM (inactive) and the GI50 (ACHN) was > 100 µM (inactive). For the same compound, the GI50 (K562) was > 100 µM (inactive), the GI50 (786-0) was > 100 µM (inactive) and the GI50 (SN12C) was > 100 µM (inactive). For the same compound, the GI50 (NCI-H522) was > 100 µM (inactive), the GI50 (SW-620) was > 100 µM (inactive) and the GI50 (IGROV-1) was > 100 µM (inactive). For the same compound, the GI50 (HOP-62) was > 100 µM (inactive), the GI50 (SK-MEL-28) was > 100 µM (inactive) and the GI50 (UACC-257) was > 100 µM (inactive). For the same compound, the GI50 (SNB-19) was > 100 µM (inactive), the GI50 (OVCAR-5) was > 100 µM (inactive) and the GI50 (COLO 205) was > 100 µM (inactive). The GI50 (MOLT-4) was > 100 µM (inactive), the GI50 (EKVX) was > 100 µM (inactive) and the GI50 (SF-268) was > 100 µM (inactive). The GI50 (Malme-3M) was > 100 µM (inactive), the GI50 (KM12) was > 100 µM (inactive) and the GI50 (U-251) was > 100 µM (inactive). For the same compound, the GI50 (SK-MEL-2) was > 100 µM (inactive), the GI50 (OVCAR-3) was > 100 µM (inactive) and the GI50 (UO-31) was > 100 µM (inactive). For the same compound, the GI50 (M14) was > 100 µM (inactive), the GI50 (NCI-H460) was > 100 µM (inactive) and the GI50 (SF-539) was > 100 µM (inactive). The GI50 (UACC-62) was > 100 µM (inactive), the GI50 (OVCAR-8) was > 100 µM (inactive) and the GI50 (A498) was > 100 µM (inactive).
